Test results: US4396615A, “Method of treating androgen-related disorders” (Duke University, priority 1981, dated 1983)
“And” between values parts separate entries of the source, which are not always exact repeats. Equal entries are not always repeated.

Experiments:
5α-reductase [1] = test: 5α-reductase assay of Moore and Wilson, with or without preincubation of enzyme with inhibitor and NADPH; format: biochemical; settings: for potency as inhibitor of the enzyme relative to progesterone: assay of Moore and Wilson; for Picomol Testosterone reduced/mg protein in 45 min + SEM: assay 45 min: inhibitor 5 × 10^-8, testosterone 5 × 10^-8, NADPH 5 × 10^-4 M; for manner of combination with / inactivation of the enzyme: in the presence of the co-factor NADPH; for Picomol Testosterone Reduced/mg protein in 45 min: assay 45 min: progesterone 5 × 10^-8, NADPH 5 × 10^-4, testosterone 5 × 10^-8
Description: Employing the assay of R. J. Moore and J. D. Wilson [Methods in Enzymology, Vol. XXXVI, Academic Press, N.Y., Ed. W. O'Malley and G. Hardman, p.

5α-reductase [2] = settings: well-known, prior art; cited from earlier work
[3] = system: 5α-reductase in cell-culture preparations of human prostate; settings: cited from earlier work
sebum secretion = settings: topical administration of a 0.5% solution in aqueous ethanol; cited from earlier work
5α-reductase [4] = settings: preparations of human benign prostatic hypertrophic tissue; cited from earlier work

Row | Structure (SMILES) | potency as inhibitor of the enzyme relative to progesterone (5α-reductase [1]) | Picomol Testosterone reduced/mg protein in 45 min + SEM (5α-reductase [1]; A: preincubation 15 min with inhibitor 5 × 10^-7 M and NADPH 6 × 10^-5 M) | Picomol Testosterone reduced/mg protein in 45 min + SEM (5α-reductase [1]; B: preincubation 15 min with inhibitor 0 and NADPH 6 × 10^-5 M) | Picomol Testosterone reduced/mg protein in 45 min + SEM (5α-reductase [1]; C: preincubation 15 min with inhibitor 0 and NADPH 0) | Picomol Testosterone reduced/mg protein in 45 min + SEM (5α-reductase [1]; D: preincubation 15 min with inhibitor 5 × 10^-7 M and NADPH 0) | Picomol Testosterone reduced/mg protein in 45 min + SEM (5α-reductase [1]; F: no preincubation) | Ki (5α-reductase [1]; first phase, from plot of t1/2 against 1/[Inhibitor] (FIG. 2), read-out: Ki of reversible combination of enzyme and inhibitor) [µM] | manner of combination with / inactivation of the enzyme (5α-reductase [1]) | time course of inactivation of the enzyme (5α-reductase [1]; incubation of enzyme with NADPH and inhibitor (FIG. 1)) | enzyme activity lost (5α-reductase [1]; preincubation of enzyme with compound and NADPH, diluted tenfold, then assayed) [%] | rate constant of irreversible combination (kcat) (5α-reductase [1]; second phase, enzyme-inhibitor complex rendered inactive) [s⁻¹] | type of inhibition of the enzyme (5α-reductase [2]) | effect on growth of the tissue [3] | inhibition of the enzyme in cell-culture preparations of human prostate [3] | males with acne showing an important decrease in sebum secretion (sebum secretion) | Picomol Testosterone Reduced/mg protein in 45 min (5α-reductase [1]; 1: preincubation 15 min with progesterone 0 and NADPH 6 × 10^-5) | Picomol Testosterone Reduced/mg protein in 45 min (5α-reductase [1]; 2: preincubation 15 min with progesterone 5 × 10^-7 and NADPH 6 × 10^-5) | Picomol Testosterone Reduced/mg protein in 45 min (5α-reductase [1]; 4: no preincubation) | enzyme inactivation on preincubation (5α-reductase [1]; preincubation of enzyme with compound and NADPH) | conversion of testosterone to dihydrotestosterone (5α-reductase [4])
1 | C=C1C[C@H]2[C@@H]3CC[C@H](C(C)=O)[C@@]3(C)CC[C@@H]2[C@@]2(C)CCC(=O)C=C12 [6-methyleneprogesterone] | equipotent with progesterone |  |  |  |  |  |  |  |  |  |  |  |  |  |  |  |  |  |  | 
2 | C=C1C[C@@H]2[C@H](CC[C@@]3(C)[C@H]2CC[C@]3(OC(C)=O)C(C)=O)[C@@]2(C)CCC(=O)C=C12 [17α-acetoxy-6-methyleneprogesterone] | equipotent with progesterone | 0.71 ± 0.018 Picomol Testosterone reduced/m | 3.0 ± 0.26 Picomol Testosterone reduced/m | 2.83 ± 0.09 Picomol Testosterone reduced/m | 2.63 ± 0.18 Picomol Testosterone reduced/m | 3.14 ± 0.20 Picomol Testosterone reduced/m | 1.25 | irreversible manner | pseudo first-order kinetics | 75 | 0.0048 |  |  |  |  |  |  |  |  | 
3 | CC(=O)[C@H]1CC[C@H]2[C@@H]3CCC4=CC(=O)CC[C@]4(C)[C@H]3CC[C@]12C [progesterone] |  |  |  |  |  |  |  | competitive and reversible |  |  |  | reversible and competitive inhibitor | inhibiting growth of the tissue | strongly inhibits the enzyme | 45/53 | 3.91 Picomol Testosterone Reduced/m and 3.41 Picomol Testosterone Reduced/m | 3.91 Picomol Testosterone Reduced/m and 3.79 Picomol Testosterone Reduced/m | 3.66 Picomol Testosterone Reduced/m and 3.54 Picomol Testosterone Reduced/m | does not result in enzyme inactivation | Inhibition of the conversion of testosterone to dihydrotestosterone
